Results on one compound are retold here after patent US12275961B2, “Method for utilizing engineered dendritic cells to induce gut-homing regulatory T cells and treat gut inflammation” (LOMA LINDA UNIVERSITY, priority 2015, dated 2025).

The conditions of series [1]: some patients; cited from earlier work.
Series [2] has as its system foxp3 expression in activated T cells. Description: foxp3 expression in T cells of splenocytes activated by anti-CD3/CD28 beads with exogenous calcitriol. The class given is cell-based, mouse. The note with it: 72 hours. The source says:
The naive mouse splenocytes can be cultured for 3 days with 1,25 Vitamin D (100 U/ml, Sigma-Aldrich) in the presence of human (h) IL-2 (50 U/ml) in complete RPMI 1640 medium (10% FBS; HyClone). The cells were harvested and stained for the FoxP3 expression with an anti-FoxP3 Ab (FJK-16s; eBioscience) and CCR9 expression.
A supraphysiological concentration of the active vitamin D metabolite, 1,25[OH]2D (calcitriol), may be necessary for calcitriol to induce foxp3 expression during T cell priming. Foxp3 is a protein that is involved in the regulatory pathway in the development and function of regulatory T cells. To determine whether a supraphysiological concentration is necessary, foxp3 expression in T cells during T cell activation in the presence of exogenous calcitriol can be examined. Splenocytes can be activated by anti-CD3/CD28 magnetic beads. In some cultures, 1,25[OH]2D can be added at a low (20 nM) or high (100 nM) concentration. Cells can be cultured for 72 hours and analyzed for foxp3 expression using flow cytometry. Flow cytometry can be performed by harvesting transduced mCYP27B1-positive DCs, washing them in PBS, resuspending them in the FACS buffer, and analyzing them for GFP expression on a flow cytometer. […] The normal range of human calcitriol serum concentration is 16˜56 pg/ml (0.038 nM 0.13 nM). […]

Series [3] relates to dextran sodium sulfate-induced inflammatory bowel disease. Kind of series: DSS-induced inflammatory bowel disease, six-group study (Example V). The class given is in vivo, mice. The source says: Then, the efficacy of the disclosed agents and method was confirmed in an additional study. […] Injections were made at day 7 post-disease induction by dextran sodium sulfate. All mice were sacrificed at day 10.

Where [4] appears, read: injection at day 7 post-DSS, sacrifice day 10.

Each structure is given as a SMILES string. “And” between values parts separate entries of the source, which are not always exact repeats. Identical values can stand only once.

Consider `C=C1C(=CC=C2CCC[C@]3(C)[C@@H]2CC[C@@H]3[C@H](C)CCCC(C)(C)O)C[C@@H](O)C[C@@H]1O` [calcitriol, (1R,3S)-5-[2-[(1R,3aR,7aS)-1-[(2R)-6-hydroxy-6-methyl-heptan-2-yl]-7a-methyl-2,3,3a, 5,6,7-hexahydro-1H-inden-4-ylidene]ethylidene]-4-methylidene-cyclohexane-1,3-diol], for which the “serum calcitriol level tolerated without dose-limiting toxicity (hypercalcemia)” value in series [1] is “up to 300 pg/ml and ≤ 0.72 nM”. The “foxp3 expression in activated T cells” value in series [2] (20 nM) is on record as “slightly up regulated”; in series [2] (100 nM), “significantly augment”. Moreover, in series [3] (calcitriol 200 ng/day/mouse intraperitoneal), the “increase in serum calcium” value is “more than 30%”. Further, the “colon lesions / mucosal integrity” value in series [3] (setting [4]) is reported as “did improve colon mucosal integrity”. In addition, in series [3] (setting [4]), the hypercalcemia result is recorded as “severe hypercalcemia”. Moreover, the body weight loss result in series [3] (injection at day 7 post-DSS, sacrifice day 10, calcitriol 200 ng/day/mouse intraperitoneal) is listed as “failed to prevent body weight loss”.
